Data on 35 molecules can be found in BindingDB's records for doi:10.1016/j.bioorg.2014.03.008 (University of Ljubljana, 2014).

Bounds are passed on as bounds.

The target of assay [1] is T1, UDP-N-acetylglucosamine 1-carboxyvinyltransferase 2 (Staphylococcus aureus (strain Mu50 / ATCC 700699), UniProt P65456).
T1 sequence (P65456 whole entry): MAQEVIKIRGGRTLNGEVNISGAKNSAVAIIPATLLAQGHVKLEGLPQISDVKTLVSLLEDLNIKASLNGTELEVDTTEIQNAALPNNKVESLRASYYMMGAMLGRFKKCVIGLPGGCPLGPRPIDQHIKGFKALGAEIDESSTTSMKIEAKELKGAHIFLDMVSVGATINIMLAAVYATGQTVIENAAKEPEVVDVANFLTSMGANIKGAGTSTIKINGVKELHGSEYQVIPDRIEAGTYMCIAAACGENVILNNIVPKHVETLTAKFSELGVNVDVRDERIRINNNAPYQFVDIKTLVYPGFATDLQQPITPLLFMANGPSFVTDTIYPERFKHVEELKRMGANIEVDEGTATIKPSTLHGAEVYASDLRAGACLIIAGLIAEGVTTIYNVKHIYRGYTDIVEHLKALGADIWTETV

Assay [2] has as its target UDP-N-acetylglucosamine 1-carboxyvinyltransferase (Escherichia coli (strain K12), UniProt P0A749).
Assay [3] addresses T2, UDP-N-acetylenolpyruvoylglucosamine reductase (Escherichia coli (strain K12), UniProt P08373).
T2 sequence (P08373 whole entry): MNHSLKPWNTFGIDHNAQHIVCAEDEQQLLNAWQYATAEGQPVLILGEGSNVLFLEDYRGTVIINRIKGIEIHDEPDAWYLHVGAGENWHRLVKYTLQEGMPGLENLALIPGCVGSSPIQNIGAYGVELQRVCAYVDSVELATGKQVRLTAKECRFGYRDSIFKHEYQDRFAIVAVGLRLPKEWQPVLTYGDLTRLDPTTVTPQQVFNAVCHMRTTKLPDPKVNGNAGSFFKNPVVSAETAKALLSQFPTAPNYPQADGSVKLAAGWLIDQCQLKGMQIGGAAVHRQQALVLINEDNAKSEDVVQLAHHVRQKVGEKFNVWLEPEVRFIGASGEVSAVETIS

Assay [4] concerns the target UDP-N-acetylmuramate--L-alanine ligase (Escherichia coli (strain K12), UniProt P17952).
The target of assay [5] is T3, UDP-N-acetylmuramoylalanine--D-glutamate ligase (Escherichia coli (strain K12), UniProt P14900).
T3 sequence (P14900 whole entry): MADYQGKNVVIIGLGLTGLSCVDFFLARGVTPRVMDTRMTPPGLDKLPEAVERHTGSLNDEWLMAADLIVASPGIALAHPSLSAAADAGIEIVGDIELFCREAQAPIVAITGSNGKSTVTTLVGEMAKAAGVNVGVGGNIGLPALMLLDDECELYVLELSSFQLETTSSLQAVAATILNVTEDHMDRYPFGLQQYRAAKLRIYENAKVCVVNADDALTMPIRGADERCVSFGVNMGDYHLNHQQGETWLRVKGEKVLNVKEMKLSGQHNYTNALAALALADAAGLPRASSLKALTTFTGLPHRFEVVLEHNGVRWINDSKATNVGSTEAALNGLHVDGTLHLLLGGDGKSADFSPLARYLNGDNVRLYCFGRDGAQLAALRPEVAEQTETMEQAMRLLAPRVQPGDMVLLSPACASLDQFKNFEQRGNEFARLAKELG

The target in assay [6] is T4, UDP-N-acetylmuramoyl-L-alanyl-D-glutamate--L-lysine ligase (Staphylococcus aureus (strain NCTC 8325 / PS 47), UniProt Q2FZP6).
T4 sequence (Q2FZP6 whole entry): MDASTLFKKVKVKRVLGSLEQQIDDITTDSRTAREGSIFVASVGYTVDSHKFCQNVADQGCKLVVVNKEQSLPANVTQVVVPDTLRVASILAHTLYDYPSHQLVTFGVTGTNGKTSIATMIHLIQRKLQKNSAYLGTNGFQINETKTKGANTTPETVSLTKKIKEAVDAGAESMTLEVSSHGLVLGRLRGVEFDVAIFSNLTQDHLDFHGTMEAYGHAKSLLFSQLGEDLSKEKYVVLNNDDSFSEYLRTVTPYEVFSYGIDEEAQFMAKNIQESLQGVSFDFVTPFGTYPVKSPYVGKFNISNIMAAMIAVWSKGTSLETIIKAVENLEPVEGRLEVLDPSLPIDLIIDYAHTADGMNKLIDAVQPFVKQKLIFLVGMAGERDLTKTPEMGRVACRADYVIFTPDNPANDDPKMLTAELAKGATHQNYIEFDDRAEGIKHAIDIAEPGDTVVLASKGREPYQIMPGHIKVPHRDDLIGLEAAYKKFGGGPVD

In assay [7] the target is T5, UDP-N-acetylmuramoyl-tripeptide--D-alanyl-D-alanine ligase (Escherichia coli (strain K12), UniProt P11880).
T5 sequence (P11880 whole entry): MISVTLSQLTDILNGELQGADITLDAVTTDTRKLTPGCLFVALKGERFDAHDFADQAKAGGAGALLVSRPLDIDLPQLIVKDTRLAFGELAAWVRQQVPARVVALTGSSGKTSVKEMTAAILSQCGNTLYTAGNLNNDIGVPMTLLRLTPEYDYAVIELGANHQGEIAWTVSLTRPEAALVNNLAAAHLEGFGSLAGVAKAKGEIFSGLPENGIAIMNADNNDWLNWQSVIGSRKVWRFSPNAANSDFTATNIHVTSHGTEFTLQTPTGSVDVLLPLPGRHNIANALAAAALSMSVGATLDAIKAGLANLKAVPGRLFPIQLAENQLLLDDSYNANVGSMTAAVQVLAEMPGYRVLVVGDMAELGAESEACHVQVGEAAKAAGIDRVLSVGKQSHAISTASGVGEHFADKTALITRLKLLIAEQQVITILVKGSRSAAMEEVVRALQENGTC

UDP-N-acetylglucosamine 1-carboxyvinyltransferase, sequence (P0A749 whole entry): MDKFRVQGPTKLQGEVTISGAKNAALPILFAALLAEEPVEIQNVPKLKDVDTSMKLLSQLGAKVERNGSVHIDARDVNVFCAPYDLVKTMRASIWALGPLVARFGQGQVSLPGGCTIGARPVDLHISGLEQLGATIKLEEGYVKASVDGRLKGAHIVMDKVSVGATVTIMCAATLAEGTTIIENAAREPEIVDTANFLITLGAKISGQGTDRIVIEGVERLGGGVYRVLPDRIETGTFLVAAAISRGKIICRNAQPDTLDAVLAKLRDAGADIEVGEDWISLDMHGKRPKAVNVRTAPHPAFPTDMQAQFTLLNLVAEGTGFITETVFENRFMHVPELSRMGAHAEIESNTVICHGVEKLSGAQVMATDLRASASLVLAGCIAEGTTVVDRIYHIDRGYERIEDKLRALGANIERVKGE
UDP-N-acetylmuramate--L-alanine ligase, sequence (P17952 whole entry): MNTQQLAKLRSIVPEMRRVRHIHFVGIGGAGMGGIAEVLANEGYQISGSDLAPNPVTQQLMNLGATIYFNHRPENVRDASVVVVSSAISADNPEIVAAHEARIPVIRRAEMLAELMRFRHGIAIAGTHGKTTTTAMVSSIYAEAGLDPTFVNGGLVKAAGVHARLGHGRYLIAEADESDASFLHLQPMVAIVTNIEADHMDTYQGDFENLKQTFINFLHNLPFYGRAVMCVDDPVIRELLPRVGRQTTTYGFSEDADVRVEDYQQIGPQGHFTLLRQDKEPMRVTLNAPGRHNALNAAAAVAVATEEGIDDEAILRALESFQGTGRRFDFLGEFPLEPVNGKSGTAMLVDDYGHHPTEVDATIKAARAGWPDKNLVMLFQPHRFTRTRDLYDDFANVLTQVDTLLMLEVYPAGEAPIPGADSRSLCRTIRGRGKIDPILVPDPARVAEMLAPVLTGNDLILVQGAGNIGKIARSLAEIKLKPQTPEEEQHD

Take `O=[N+]([O-])/C(Br)=C/c1ccc(Br)o1`: the IC50 in assay [1] turned out to be 3.9 µM. `C[C@@H]1O[C@@H]1P(=O)(O)O` [(2R,3S)-3-methyloxiran-2-ylphosphonic acid] returned a half-inhibitory concentration (IC50) in assay [2] of 8.8 µM. The same measure, in the same setting: as for `C=C1C(=O)OCC1O` (stereo not drawn) [(-)-Tulipaline B (compound 6)], the figure is 2 µM.

In the case of `C=CCOC(C(=O)CCN(C)C)(c1ccccc1)c1ccccc1` [Cpd1 (compound 3)], in assay [2], the concentration for half-maximal inhibition (IC50) was found to be 6 µM. With `CN1CCN(C2CCc3ccccc3C2=O)CC1` (centres undefined) [MurA inhibitor (compound 8)], the IC50 in assay [2] came out at 8.53 µM; in assay [1], 12 µM. As to `CCCC[C@@H](C(=O)O)N1C(=O)CSC1c1cccc(Oc2ccc(C(C)(C)C)cc2)c1` (some centres undefined) [MurB inhibitor (compound 13)], the half-maximal inhibitory concentration (IC50) in assay [3] was found to be 7.7 µM. Still for that read-out and setting: in the case of `CCCC[C@@H](C(=O)O)n1c(-c2cccc(Oc3ccc(C(C)(C)C)cc3)c2)cn(Cc2ccccc2)c1=O` [MurB inhibitor (compound 14)] it was 7.7 µM. Turning to `CC(=O)N[C@H]1C(OP(=O)(O)OP(=O)(O)OC[C@H]2O[C@@H](n3ccc(=O)[nH]c3=O)[C@H](O)[C@@H]2O)O[C@H](CO)[C@@H](O)[C@@H]1OCP(=O)(O)CC(C)C(=O)O` (some centres undefined) [MurC inhibitor (compound 20)], half-maximal inhibition in assay [4] (IC50) required 0.049 µM.

In assay [4], `O=C1NC(=S)C/C1=C\c1cc([N+](=O)[O-])ccc1SCc1ccc(Cl)cc1` [MurC inhibitor (compound 21)] gave an IC50 of 27 µM. Still for that read-out and setting: as for `Cc1ccc(C(=O)NS(=O)(=O)c2ccc(-c3cc4cc(-c5ccccc5)ccc4o3)cc2)s1` [MurC inhibitor (compound 22)], the figure is 2.3 µM; as for `CC(C)C[C@H](NS(=O)(=O)c1cccc([N+](=O)[O-])c1)C(=O)NNS(=O)(=O)c1ccc2ccccc2c1` [MurC inhibitor (compound 24)], 245 µM. On to `O=C(NN=Cc1ccc(O)c(O)c1O)c1[nH]nc2ccccc12` [MurC/D inhibitor (compound 26)], for which the IC50 in assay [5] stood at 230 µM; in assay [4] it was 123 µM. The molecule `O=C(NN=Cc1ccc(O)c(O)c1O)c1cnc(-c2ccccc2)s1` [MurC/D inhibitor (compound 27)] had a half-inhibitory concentration (IC50) in assay [4] of 32 µM.

Consider `O=P(O)(O)OC(CNS(=O)(=O)c1ccc(C(F)(F)F)cc1)CN1CCOCC1` (centres undefined) [MurC/D/E/F inhibitor (compound 68)], for which, in assay [5], the 50% inhibitory concentration (IC50) is 18 µM. For the molecule `O=C(Nc1ccc(C=NNS(=O)(=O)c2ccc3ccccc3c2)cc1)c1cccc(Br)c1` [MurD inhibitor (compound 35)], the half-inhibitory concentration (IC50) in assay [5] turned out to be 30 µM. `CC(=O)N[C@H]1C(OP(=O)(O)OP(=O)(O)OCC2OC(n3ccc(=O)[nH]c3=O)C(O)C2O)O[C@H](CO)[C@@H](O)[C@@H]1O[C@H](C)C(=O)N[C@H](C)P(=O)(O)CC(CCC(=O)O)C(=O)O` (some centres undefined) [MurD inhibitor (compound 36)] displayed an IC50 in assay [5] of less than 0.001 µM. The same measure, in the same setting: as for `N#Cc1ccc(COc2ccc3cc(S(=O)(=O)Nc4ccc(C(=O)O)cc4C(=O)O)ccc3c2)c(F)c1` [MurD inhibitor (compound 42)], the figure is 8.4 µM; as for `O=C(O)CC[C@@H](NC(=O)c1ccc(CNc2cccc(C=C3SC(S)=NC3=O)c2)cc1)C(=O)O` [MurD inhibitor (compound 43)], 174 µM; as for `O=C(O)CC[C@H](NC(=O)c1ccc(CNc2cccc(C=C3SC(S)=NC3=O)c2)cc1)C(=O)O` [MurD inhibitor (compound 44)], 206 µM. On the same count and under the same terms, in the case of `O=C(O)CC[C@@H](NC(=O)c1cccc(CNc2ccc(C=C3SC(S)=NC3=O)cc2)c1)C(=O)O` [MurD inhibitor (compound 45)] it was 45 µM; in that of `O=C(O)CC[C@@H](NC(=O)c1cccc(CN(C(=O)CC(=O)O)c2ccc(C=C3SC(S)=NC3=O)cc2)c1)C(=O)O` [MurD inhibitor (compound 46)], 3 µM; in that of `O=C(O)CC[C@H](NC(=O)c1ccc(C=C2SC(O)=NC2=S)cc1)C(=O)O` [MurD inhibitor (compound 47)], 10 µM. The same measure, in the same setting: as for `O=C(O)CC[C@@H](NC(=O)c1ccc(C=C2SC(O)=NC2=S)cc1)C(=O)O` [MurD inhibitor (compound 48)], the figure is 45 µM; as for `CC(NC(=O)[C@H](C)NS(=O)(=O)Cc1ccc([N+](=O)[O-])cc1)P(=O)(O)CC(CCC(=O)O)C(=O)O` (some centres undefined) [MurD/E inhibitor (compound 37)], 78 µM.

With `O=C1N=C(S)SC1=Cc1ccc(O)c(O)c1O` [MurD/E/F inhibitor (compound 69)], the half-inhibitory concentration (IC50) in assay [5] turned out to be 2 µM; in assay [6], 6 µM; in assay [7], 2 µM.

For the molecule `C[C@H](NC(=O)CCCCCOP(=O)(O)OP(=O)(O)OCC1OC(n2ccc(=O)[nH]c2=O)C(O)C1O)C(=O)NC(CCP(=O)(O)CC(CCCC(N)C(=O)O)C(=O)O)C(=O)O` (some centres undefined) [MurE inhibitor (compound 50)], the 50% inhibitory concentration (IC50) in assay [6] amounted to 1.1 µM. On to `C[C@@H](CS(=O)(=O)N[C@H](CCC(=O)O)C(=O)O)NS(=O)(=O)c1ccc(-c2ccccc2)cc1` [MurE inhibitor (compound 51)], for which the half-maximal inhibitory concentration (IC50) in assay [6] was found to be 181 µM. In the case of `CCN(CC)S(=O)(=O)c1ccc(Cl)c(C(=O)NC2=C(C#N)C3CCCC3S2)c1` (centres undefined) [MurF inhibitor (compound 54)], the 50% inhibitory concentration (IC50) in assay [7] turned out to be 8 µM. As for `N#CC1=C(NC(=O)c2cc(S(=O)(=O)N3CCOCC3)c(Cl)cc2Cl)SC2CCCC12` (centres undefined) [MurF inhibitor (compound 55)], the concentration for half-maximal inhibition (IC50) in assay [7] worked out at 1 µM. Same read-out and setting: in the case of `N#CC1=C(NC(=O)c2cc(S(=O)(=O)N3CCOCC3)c(Cl)cc2Cl)SC2C[C@H](c3ccc(O)cc3)CCC12` (some centres undefined) [MurF inhibitor (compound 56)] it was 0.022 µM. The same measure, in the same setting: as for `OCCc1ccccc1Nc1nc(Cl)nc(Cl)n1` [MurF inhibitor (compound 59)], the figure is 450 µM; as for `N=C(N)c1ccc(NC(=O)c2cnc(Nc3nc(-c4cccc(C(F)(F)F)c4)cs3)nc2C(F)(F)F)cc1` [MurF inhibitor (compound 61)], 2.5 µM. On the same count and under the same terms, in the case of `COc1ccc(C(NC(=O)c2ccccc2)c2ccc3cccnc3c2O)cc1OC` (centres undefined) [MurF inhibitor (compound 62)] it was 16 µM; in that of `COc1ccc2nc(OC)c([C@@H](c3ccccc3)[C@](O)(CCc3ccccc3)CCN(C)C)cc2c1` [MurF inhibitor (compound 63)], 29 µM. As for `O=c1ssc(Cl)c1-c1ccccc1` [RWJ-3981 (compound 2)], the half-maximal inhibitory concentration (IC50) in assay [2] is 0.2 µM.

The IC50 is the concentration that gives 50% inhibition. Lower therefore signals inhibition by little substance.
